Results from ChEMBL document CHEMBL1201862, “PubChem BioAssay data set” (2004).
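48-hour exposure; five concentrations; linearly interpolated endpoints. GI50 = concentration required for 50% inhibition of growth.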 Active and inactive are the calls of the source. No stated cut-off is given here; in the data, active = GI50 up to about 1.1 µM and inactive = higher.

Columns and labels:
Experiment in all cases: NCI-60 cell line screen, 48 h
A549 = system: A549
CCRF-CEM = system: CCRF-CEM
COLO 205 = system: COLO 205
EKVX = system: EKVX
IGROV-1 = system: IGROV-1
K562 = system: K562
M14 = system: M14
MDA-MB-435 = system: MDA-MB-435
NCI-H522 = system: NCI-H522
OVCAR-4 = system: OVCAR-4
OVCAR-5 = system: OVCAR-5
OVCAR-8 = system: OVCAR-8
PC-3 = system: PC-3
RPMI-8226 = system: RPMI-8226
SF-295 = system: SF-295
SK-MEL-5 = system: SK-MEL-5
SK-OV-3 = system: SK-OV-3
SNB-19 = system: SNB-19
SW-620 = system: SW-620
TK-10 = system: TK-10

| SMILES | GI50 (A549) | GI50 (CCRF-CEM) | GI50 (COLO 205) | GI50 (EKVX) | GI50 (IGROV-1) | GI50 (K562) | GI50 (M14) | GI50 (MDA-MB-435) | GI50 (NCI-H522) | GI50 (OVCAR-4) | GI50 (OVCAR-5) | GI50 (OVCAR-8) | GI50 (PC-3) | GI50 (RPMI-8226) | GI50 (SF-295) | GI50 (SK-MEL-5) | GI50 (SK-OV-3) | GI50 (SNB-19) | GI50 (SW-620) | GI50 (TK-10) |
| --- | --- | --- | --- | --- | --- | --- | --- | --- | --- | --- | --- | --- | --- | --- | --- | --- | --- | --- | --- | --- |
| Cc1ccn2c(=O)cc(-c3ccccc3)nc2c1 | > 100 µM (inactive) | > 100 µM (inactive) | > 100 µM (inactive) | 44.7 µM (inactive) | > 100 µM (inactive) | > 100 µM (inactive) | > 100 µM (inactive) | > 10 µM (inactive) | 55.2 µM (inactive) | > 100 µM (inactive) | > 100 µM (inactive) | > 100 µM (inactive) | > 100 µM (inactive) | > 100 µM (inactive) | > 100 µM (inactive) | > 100 µM (inactive) | > 100 µM (inactive) | > 100 µM (inactive) | > 100 µM (inactive) | > 100 µM (inactive) |
| O=C(C#Cc1ccccc1)C1=Cc2ccccc2OC1 | 9.31 µM (inactive) | 0.198 µM (active) | 1.92 µM (inactive) | 2.09 µM (inactive) | 2.38 µM (inactive) | 2.61 µM (inactive) | 3.01 µM (inactive) | 3.86 µM (inactive) | 1.37 µM (inactive) | 3.34 µM (inactive) | 2.99 µM (inactive) | 2.39 µM (inactive) | 4.34 µM (inactive) | 2.71 µM (inactive) | 20.7 µM (inactive) | 2.08 µM (inactive) | 15 µM (inactive) | 15 µM (inactive) | 2.22 µM (inactive) | 1.9 µM (inactive) |
| CC(=O)O[C@H]1C(=O)[C@@]2(C)[C@H]([C@H](OC(=O)c3ccoc3)[C@]3(O)C[C@H](OC(=O)[C@H](O)[C@@H](NC(=O)c4ccccc4)c4ccccc4)C(C)=C1C3(C)C)[C@]1(OC(C)=O)CO[C@@H]1C[C@@H]2O | 0.115 µM (active) | 0.0566 µM (active) | 0.0515 µM (active) | > 9.59 µM (inactive) | 0.0962 µM (active) | 0.0324 µM (active) | 0.129 µM (active) | 0.00456 µM (active) | 0.0434 µM (active) | > 12.5 µM (inactive) | 0.0953 µM (active) | 0.0798 µM (active) | 0.053 µM (active) | 0.00904 µM (active) | 0.582 µM (active) | 0.0467 µM (active) | 0.0578 µM (active) | 0.145 µM (active) | 0.0448 µM (active) | > 2.99 µM (inactive) |
| CCCn1c(SC)nc(COC(=O)NC)c1COC(=O)NC | > 100 µM (inactive) | > 100 µM (inactive) | > 100 µM (inactive) | > 100 µM (inactive) | > 100 µM (inactive) | > 100 µM (inactive) | > 100 µM (inactive) | > 100 µM (inactive) | > 100 µM (inactive) | > 100 µM (inactive) | > 100 µM (inactive) | > 100 µM (inactive) | > 100 µM (inactive) | > 100 µM (inactive) | > 100 µM (inactive) | > 100 µM (inactive) | > 100 µM (inactive) | > 100 µM (inactive) | > 100 µM (inactive) | > 100 µM (inactive) |
| Clc1ncc(Cl)c(Cl)n1 | 12.1 µM (inactive) | 2.47 µM (inactive) | 1.72 µM (inactive) | 13.3 µM (inactive) | 9.66 µM (inactive) | 0.832 µM (active) | 3.24 µM (inactive) | 2.65 µM (inactive) | 1.48 µM (inactive) | 2.08 µM (inactive) | 19.8 µM (inactive) | 3.86 µM (inactive) | 2.45 µM (inactive) | 0.455 µM (active) | 13.2 µM (inactive) | 5.05 µM (inactive) | 4.7 µM (inactive) | 3.3 µM (inactive) | 1.38 µM (inactive) | 9.55 µM (inactive) |
| CCCc1c2c3ccccc3nc-2nc2ccccn12 | 83.4 µM (inactive) | > 100 µM (inactive) | 97.7 µM (inactive) | > 100 µM (inactive) | 63.5 µM (inactive) | 52.6 µM (inactive) | 26.7 µM (inactive) | 94.4 µM (inactive) | > 100 µM (inactive) | 50.5 µM (inactive) | 25.2 µM (inactive) | 71.8 µM (inactive) | 64.6 µM (inactive) | 41.9 µM (inactive) | 49.8 µM (inactive) | > 100 µM (inactive) | > 100 µM (inactive) | > 100 µM (inactive) | 36.4 µM (inactive) | 52.7 µM (inactive) |
| CC1CCC2(NC1)OC1CC3C4CC=C5CC(OC6OC(CO)C(OC7OC(C)C(O)C(O)C7O)C(O)C6OC6OC(C)C(O)C(O)C6O)CCC5(C)C4CCC3(C)C1C2C (stereo not given) | 3.15 µM (inactive) | 15 µM (inactive) | 8.63 µM (inactive) | 2.5 µM (inactive) | 5.82 µM (inactive) | 4.11 µM (inactive) | 2.39 µM (inactive) | 2.04 µM (inactive) | 1.7 µM (inactive) | 2.54 µM (inactive) | 5.66 µM (inactive) | 2.88 µM (inactive) | 2.09 µM (inactive) | 12.8 µM (inactive) | 2.08 µM (inactive) | 5.58 µM (inactive) | 7.18 µM (inactive) | 11.1 µM (inactive) | 4.4 µM (inactive) | 5.31 µM (inactive) |
| CC(O)CCCOC(c1ccccc1)(c1ccccc1)c1ccccc1 (stereo not given) | 13.8 µM (inactive) | 23.3 µM (inactive) | 20.1 µM (inactive) | 14.8 µM (inactive) | 15.7 µM (inactive) | 22.9 µM (inactive) | 15.5 µM (inactive) | 16.5 µM (inactive) | 13.7 µM (inactive) | 14.8 µM (inactive) | 16.7 µM (inactive) | 14.7 µM (inactive) | 11.5 µM (inactive) | 15.2 µM (inactive) | 13.8 µM (inactive) | 11.8 µM (inactive) | 16.6 µM (inactive) | 16 µM (inactive) | 16.6 µM (inactive) | 16.6 µM (inactive) |
